Experimental data published in ChEMBL document CHEMBL5107972 (RSC Med Chem, 2022).
In brackets after ≈: the same amount, converted by molar mass.

How the values were obtained:
Format in all cases: functional
[1] = tested on: Mycobacterium tuberculosis; test: Antitubercular activity against clinical isolate isoniazid-resistant Mycobacterium tuberculosis ATCC 35822 assessed as inhibition of bacterial growth incubated for 7 days by Presto blue resazurin microtiter plate assay; settings: ATCC 35822, 168 h, time 7 day
[2] = tested on: Mycobacterium tuberculosis; test: Antitubercular activity against clinical isolate rifampicin-resistant Mycobacterium tuberculosis ATCC 35838 assessed as inhibition of bacterial growth incubated for 7 days by Presto blue resazurin microtiter plate assay; settings: ATCC 35838, 168 h, time 7 day
[3] = tested on: Mycobacterium tuberculosis; test: Antitubercular activity against clinical isolate ethambutol-resistant Mycobacterium tuberculosis ATCC 35837 assessed as inhibition of bacterial growth incubated for 7 days by Presto blue resazurin microtiter plate assay; settings: ATCC 35837, 168 h, time 7 day
[4] = tested on: Mycobacterium tuberculosis; test: Antitubercular activity against clinical isolate streptomycin-resistant Mycobacterium tuberculosis ATCC 35820 assessed as inhibition of bacterial growth incubated for 7 days by Presto blue resazurin microtiter plate assay; settings: ATCC 35820, 168 h, time 7 day

Structure (SMILES)	MIC [1] [µg/mL]	MIC [2] [µg/mL]	MIC [3] [µg/mL]	MIC [4] [µg/mL]
CC[C@@H](CO)NCCN[C@@H](CC)CO [ETHAMBUTOL]	4 (≈ 19.6 µM)	2 (≈ 9.79 µM)	32 (≈ 157 µM)	2 (≈ 9.79 µM)
NNC(=O)c1ccncc1 [ISONIAZID]	> 64	0.03 (≈ 0.219 µM)	0.03 (≈ 0.219 µM)	0.03 (≈ 0.219 µM)
CO[C@H]1/C=C/O[C@@]2(C)Oc3c(C)c(O)c4c(O)c(c(/C=N/N5CCN(C)CC5)c(O)c4c3C2=O)NC(=O)/C(C)=C\C=C\[C@H](C)[C@H](O)[C@@H](C)[C@@H](O)[C@@H](C)[C@H](OC(C)=O)[C@@H]1C [RIFAMPIN]	0.03 (≈ 0.0365 µM)	64 (≈ 77.8 µM)	0.03 (≈ 0.0365 µM)	0.03 (≈ 0.0365 µM)
CN[C@@H]1[C@H](O[C@H]2[C@H](O[C@H]3[C@H](O)[C@@H](O)[C@H](N=C(N)N)[C@@H](O)[C@@H]3N=C(N)N)O[C@@H](C)[C@]2(O)C=O)O[C@@H](CO)[C@H](O)[C@H]1O [STREPTOMYCIN]	1 (≈ 1.72 µM)	1 (≈ 1.72 µM)	1 (≈ 1.72 µM)	> 64
